From ChEMBL document CHEMBL1201862, “PubChem BioAssay data set” (2004)
Values joined by “and” are separate entries in the source; they are usually repeats but may differ in a detail not shown here. Equal values may be shown once.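 Dose response: 5 concentrations. Exposure: 48 h. Format: 96-well plates. Endpoint: linear interpolation; highest concentration if not reached. GI50 marks 50% less growth.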 Active and inactive are the calls of the source. No stated cut-off is given here; in the data, active = GI50 up to about 1.1 µM and inactive = higher.

Experiments:
Experiment in all cases: NCI anticancer screen, dose series, 48 h
[1] = test system: HOP-92
[2] = test system: SNB-19
[3] = test system: M14
[4] = test system: SR
[5] = test system: A498
[6] = test system: OVCAR-3
[7] = test system: SF-268
[8] = test system: MDA-N
[9] = test system: LOX IMVI
[10] = test system: SK-MEL-2
[11] = test system: EKVX
[12] = test system: ACHN
[13] = test system: HCT-116
[14] = test system: A549
[15] = test system: SK-MEL-5
[16] = test system: IGROV-1
[17] = test system: RPMI-8226
[18] = test system: Hs-578T
[19] = test system: UACC-257
[20] = test system: NCI-H226
[21] = test system: HCC 2998
[22] = test system: UO-31
[23] = test system: TK-10
[24] = test system: OVCAR-8
[25] = test system: MDA-MB-435
[26] = test system: OVCAR-5
[27] = test system: PC-3
[28] = test system: SW-620
[29] = test system: NCI/ADR-RES
[30] = test system: HOP-62
[31] = test system: HL-60
[32] = test system: 786-0
[33] = test system: NCI-H23
[34] = test system: NCI-H460
[35] = test system: OVCAR-4
[36] = test system: T47D
[37] = test system: CAKI-1
[38] = test system: HT-29
[39] = test system: U-251
[40] = test system: SF-539
[41] = test system: SN12C
[42] = test system: BT-549
[43] = test system: SF-295
[44] = test system: UACC-62
[45] = test system: K562
[46] = test system: MDA-MB-231
[47] = test system: SNB-75
[48] = test system: NCI-H522
[49] = test system: RXF 393
[50] = test system: SK-OV-3
[51] = test system: MOLT-4
[52] = test system: HCT-15
[53] = test system: MCF7
[54] = test system: SK-MEL-28
[55] = test system: KM12
[56] = test system: Malme-3M
[57] = test system: CCRF-CEM
[58] = test system: COLO 205
[59] = test system: DU-145

Measured: GI50

N/N=C(\C(=O)Nc1ccc([N+](=O)[O-])cc1)C(C1=Nc2cc([N+](=O)[O-])ccc2NC1)[N+](=O)[O-] (stereo not given)
inactive: [1] > 100 µM | [2] > 100 µM | [3] > 100 µM | [4] > 100 µM | [5] > 100 µM | [6] > 100 µM | [7] > 100 µM | [8] > 100 µM | [9] 74.8 µM | [10] > 100 µM | [11] > 100 µM | [12] 43.1 µM | [13] 79.1 µM | [14] 55.8 µM | [15] 74.1 µM | [16] > 100 µM | [17] > 100 µM | [18] > 100 µM | [19] > 100 µM | [20] > 100 µM | [21] > 100 µM | [22] 22.1 µM | [23] > 100 µM | [24] > 100 µM | [25] 88.3 µM | [26] > 100 µM | [27] > 100 µM | [28] 91.4 µM | [29] > 100 µM | [30] > 100 µM | [31] > 100 µM | [32] > 100 µM | [33] > 100 µM | [34] 42.2 µM | [35] > 100 µM | [36] 75.7 µM | [37] 79.4 µM | [38] 72.4 µM | [39] > 100 µM | [40] > 100 µM | [41] > 100 µM | [42] > 100 µM | [43] > 100 µM | [44] > 100 µM | [45] > 100 µM | [46] > 100 µM | [47] > 100 µM | [48] 25.3 µM | [49] > 100 µM | [50] > 100 µM | [51] > 100 µM | [53] 44.3 µM | [54] > 100 µM | [55] 32 µM | [56] > 100 µM | [57] 65.2 µM
> 100 µM: [52]

O=c1cc(O)c1=O
> 100 µM: [52]
inactive: [1] > 100 µM | [2] > 100 µM | [3] > 100 µM | [4] > 100 µM | [5] > 100 µM | [6] > 100 µM | [7] 61.2 µM | [8] > 100 µM | [9] > 100 µM | [10] > 100 µM | [11] > 100 µM | [12] > 100 µM | [13] > 100 µM | [14] > 100 µM | [15] > 100 µM | [16] > 100 µM | [17] > 100 µM | [18] > 100 µM | [19] > 100 µM | [20] > 100 µM | [21] > 100 µM | [22] > 100 µM | [23] > 100 µM | [24] > 100 µM | [25] > 100 µM | [26] > 100 µM | [27] > 100 µM | [28] > 100 µM | [30] > 100 µM | [31] > 100 µM | [58] > 100 µM | [33] > 100 µM | [34] > 100 µM | [35] > 100 µM | [36] > 100 µM | [37] > 100 µM | [38] > 100 µM | [39] > 100 µM | [40] > 100 µM | [41] > 100 µM | [42] > 100 µM | [43] > 100 µM | [44] > 100 µM | [45] > 100 µM | [46] > 10 µM | [59] > 100 µM | [47] > 100 µM | [48] > 100 µM | [50] > 100 µM | [51] > 100 µM | [53] > 100 µM | [54] > 100 µM | [55] > 100 µM | [56] > 100 µM | [57] > 100 µM

CN1C=c2c3c(ccc2=C2C=CC4C=C5OCOC5=CC4=C21)OCO3 (stereo not given)
active: [31] 285 nM and 170 nM
1.05 µM (active) and 1.58 µM (inactive): [28]
1.41 µM and 1.7 µM: [52]
inactive: [3] 1.21 µM and 1.73 µM | [7] 2.42 µM and 1.61 µM | [8] 1.85 µM and 1.35 µM | [9] 1.8 µM and 1.6 µM | [10] 2.69 µM and 1.95 µM | [15] 2.44 µM and 1.6 µM | [16] 1.99 µM and 1.65 µM | [18] 1.9 µM and 2.65 µM | [19] 3.15 µM and 1.76 µM | [22] 2.1 µM and 1.47 µM | [27] 2.96 µM and 1.52 µM | [30] 2.28 µM and 1.55 µM | [32] 1.66 µM and 1.31 µM | [58] 1.89 µM and 1.4 µM | [33] 1.53 µM and 2.98 µM | [35] 1.85 µM and 3.11 µM | [36] 1.75 µM and 2.28 µM | [38] 2.07 µM and 1.62 µM | [39] 1.57 µM and 2.34 µM | [40] 2.28 µM and 1.71 µM | [41] 1.92 µM and 1.56 µM | [42] 2.15 µM and 1.58 µM | [46] 2 µM and 1.22 µM | [47] 1.87 µM and 3.72 µM | [48] 1.5 µM and 1.45 µM | [54] 1.59 µM and 2.89 µM | [56] 2.44 µM and 1.6 µM
871 nM (active) and 1.58 µM (inactive): [6]
1.06 µM (active) and 1.85 µM (inactive): [25]
1.66 µM (inactive) and 1.02 µM (active): [13]
1.98 µM (inactive) and 1.04 µM (active): [49]

O=C1c2c(O)cc(O)cc2OC(c2ccc(O)cc2O)C1O (stereo not given)
inactive: [3] > 100 µM | [8] > 100 µM | [11] > 100 µM | [14] > 100 µM | [18] > 100 µM | [23] > 100 µM | [25] > 100 µM | [27] > 100 µM | [33] > 100 µM | [34] > 100 µM | [36] > 100 µM | [37] > 100 µM | [42] > 100 µM | [43] > 100 µM | [46] > 100 µM | [59] > 100 µM | [49] > 100 µM | [53] > 100 µM | [55] > 100 µM

O=C1CCC(N2C(=O)c3ccccc3C2=O)C(=O)N1 (stereo not given) [THALIDOMIDE]
inactive: [1] > 100 µM | [2] > 100 µM | [3] > 100 µM | [4] > 100 µM | [7] > 100 µM | [8] > 100 µM | [10] > 100 µM | [11] > 100 µM | [12] > 100 µM | [13] > 100 µM | [14] > 100 µM | [15] > 100 µM | [16] > 100 µM | [17] > 100 µM | [18] > 100 µM | [19] > 100 µM | [21] > 100 µM | [22] > 100 µM | [24] > 100 µM | [25] > 100 µM | [26] > 100 µM | [27] > 100 µM | [28] > 100 µM | [29] > 100 µM | [30] > 100 µM | [32] > 100 µM | [58] > 100 µM | [33] > 100 µM | [34] > 100 µM | [35] > 100 µM | [36] > 100 µM | [37] > 100 µM | [39] > 100 µM | [41] > 100 µM | [42] > 100 µM | [43] > 100 µM | [44] > 100 µM | [45] > 100 µM | [59] > 100 µM | [47] > 100 µM | [48] > 100 µM | [49] > 100 µM | [50] > 100 µM | [51] > 100 µM | [53] > 100 µM | [55] > 100 µM | [56] > 100 µM | [57] > 100 µM
> 100 µM: [52]
